Values quoted from earlier work as cited in patent US7286970B2, “Computational model, method, and system for kinetically-tailoring multi-drug chemotherapy for individuals” (The Regents of the University of California, priority 2002, dated 2007).
Marks after values point to notes of the source that are not given here.

Conditions: for Plasma Half-life: in vivo

Structure (SMILES) | Plasma Half-life | half-life
CC/C(=C(\c1ccccc1)c1ccc(OCCN(C)C)cc1)c1ccccc1 [Tamoxifen, tamoxifen] | 10^e h | –
O=c1[nH]cc(F)c(=O)[nH]1 [5-Fluorouracil, 5-fluorouracil] | – | about 15 min
CN(Cc1cnc2nc(N)nc(N)c2n1)c1ccc(C(=O)N[C@@H](CCC(=O)O)C(=O)O)cc1 [Methotrexate, methotrexate] | 8^d h | –
COc1cccc2c1C(=O)c1c(O)c3c(c(O)c1C2=O)C[C@@](O)(C(=O)CO)C[C@@H]3O[C@H]1C[C@H](N)[C@H](O)[C@H](C)O1 [Doxorubicin, doxorubicin] | 25^d h | –
O=P1(N(CCCl)CCCl)NCCCO1 (centres unmarked) [Cyclophosphamide, cyclophosphamide] | 4^d h | –
